# Results as given in article PMC9232501, “Results of the phase I CCTG IND.231 trial of CX-5461 in patients with advanced solid tumors enriched for DNA-repair deficiencies” (Nature Communications, 2022).
# “And” between values parts separate entries of the source, which are not always exact repeats. Identical values can stand only once.
# Tests used:
# HCT116 cells [1] = test: HCT116 cytotoxicity (WST-1 assay) with and without UVA radiation; type: cell-based, Human; conditions: for WST-1 raw signal (Figure 5c): replicates
# Experimental: (§1) Fig. 5 Comparison of G4 ligand photosensitization. […] Vertical axis, fractional survival, horizontal axis log10 drug concentration (M) (f) Representative images of CPD immunofluorescent staining under UV and drug treatment conditions for U2OS cells, quantified from biological duplicates in (g) (h) Scale bar = 100um. U2OS cells were treated with drug or vehicle control, then immediately irradiated with UVA 125 mJ/cm^2; and fixed 1 h later for immunofluorescence staining with CPD antibody. g Distribution of mean intensity of CPD level per cell (total n = in labels), with two biological repeats per condition. Vertical axis, mean CPD intensity per cell, horizontal axis, conditions (h) WT or KO XPA HAP1 cells assayed for cytotoxicity. Vertical axis, fractional survival (WST-1 assay). The horizontal axis, log10 drug concentration (M). Error bars = standard deviation of the mean. Three biological repeats per condition.
# (§2) Human epidermal keratinocytes (HEKa) cells were sourced from Thermo Fisher Scientific, and were grown in EpiLife™ Medium with HKGS. HAP WT and XPA knockout cell lines (Horizon Discovery) were cultured in IMDM, 10% FCS. Human HCT116 cells, U2OS cells (ATCC) were grown in McCoy’s 5 A medium with 10% FBS and L-glutamine. All cell lines are mycoplasma free and have been authenticated by STR or SNP profiling. CX-5461 was provided by Senhwa Biosciences, Inc. PDS is from Sigma-Aldrich, BRACO-19 from Alfa Chemistry, PhENDC3 is from Sigma-Aldrich, γ -H2AX antibody from Abcam (1:1000 for IF) and CPD antibody (1:1500) from Cosmo Bio Ltd. (Catalog number: CAC-NM-DAD-001). The WST-1 assay was performed as previously described, γ H2AX foci staining was performed as previously described. Immunofluorescence staining of CPD was performed according to the protocol from the manufacturer (Cosmo Bio Ltd).
# U2OS cells = test: CPD (cyclobutane pyrimidine dimer) immunofluorescence after UVA 125 mJ/cm^2; type: cell-based, Human; conditions: 1 h compound exposure
# Experimental: as §1
# Human epidermal keratinocytes (HEKa) cells were sourced from Thermo Fisher Scientific, and were grown in EpiLife™ Medium with HKGS. HAP WT and XPA knockout cell lines (Horizon Discovery) were cultured in IMDM, 10% FCS. Human HCT116 cells, U2OS cells (ATCC) were grown in McCoy’s 5 A medium with 10% FBS and L-glutamine. All cell lines are mycoplasma free and have been authenticated by STR or SNP profiling. […]
# [2] = system: γ-H2AX (double-stranded DNA breaks); test: γ-H2AX immunofluorescent staining with and without UVA radiation; type: cell-based; conditions: CX5461 10^-8M, 5x10-8M; PDS 20 x 10^-6M
# Experimental: as §2
# (§3) Supplementary Figures and Tables
# (§4) Supplementary Figure 1. UVA radiation increased double-stranded DNA breaks and ROS.
# (§5) Representative pictures of g -H2AX immunofluorescent staining with and without UVA radiation, for […]
# condition, quantified in (b) Quantile and mean intensity of g-H2AX level per cell, vertical axis. UV and drug factor conditions, horizontal axis. […] Number of cells as in Figure 5 g (c) The ratio of ROS level measured after UVA irradiation versus before UVA irradiation was calculated. […]
# HCT116 cells [3] = test: ROS measurement with H2DCFDA before/after UVA 125 mJ/cm^2; type: cell-based, Human; conditions: CX-5461 0.1 μM or PDS 10 μM for 1 h
# Experimental: ROS measurement with H2DCFDA: HCT116 cells were treated with vehicle, CX-5461 0.1 μM or PDS 10 μM for 1 h, then were added with H2DCFDA for 45 min before initial fluorescence measurement. Cells were then irradiated with UVA 125 mJ/cm^2, and immediately sent for a second fluorescent measurement. The ratio of the second and the first fluorescent measurement was calculated as the level of ROS induced by UVA. Assays were performed in the 1-hour time frame within which UV damage manifests, in contrast to G4 ligand-induced damage which takes 3–4 h to be measurable.
# as §3, §4, §5
# condition, quantified in (b) Quantile and mean intensity of g-H2AX level per cell, vertical axis. UV and drug factor conditions, horizontal axis. Experiments were repeated two times (biological duplicates) and similar results were obtained. Number of cells as in Figure 5 g (c) The ratio of ROS level measured after UVA irradiation versus before UVA irradiation was calculated. Biological triplicates. The horizontal bar = median. ***P<0.0001, Welch’s t-test; n=8
# (1 picture or pasted object on this page, not shown here)
# [4] = system: BRCA2 and BRCA1-deficient tumor models; conditions: cited from earlier work
structure (smiles),measurement,setting,value
"NCCOc1cc(C(=O)Nc2cc(OCCN)c3ccccc3n2)nc(C(=O)Nc2cc(OCCN)c3ccccc3n2)c1 [PDS, pyridostatin]",potentiation of UVA-induced cytotoxicity,HCT116 cells [1]; UV 5 mJ/cm^2 and 125 mJ/cm^2,not
same,WST-1 raw signal (Figure 5c),"HCT116 cells [1]; conc 1.56e-6, 5mJ/cm2 UV",3.2786 and 3.1337
same,WST-1 raw signal (Figure 5c),"HCT116 cells [1]; conc 1.56e-6, 125 mJ/cm2 UV",2.9405 and 3.1793
same,WST-1 raw signal (Figure 5c),"HCT116 cells [1]; conc 1.56e-6, no UV",3.373 and 3.3554
same,WST-1 raw signal (Figure 5c),"HCT116 cells [1]; conc 3.13e-6, 5mJ/cm2 UV",2.8932 and 3.2752
same,WST-1 raw signal (Figure 5c),"HCT116 cells [1]; conc 3.13e-6, 125 mJ/cm2 UV",3.2783 and 2.5154
same,WST-1 raw signal (Figure 5c),"HCT116 cells [1]; conc 3.13e-6, no UV",3.1639 and 3.0204
same,WST-1 raw signal (Figure 5c),"HCT116 cells [1]; conc 6.25e-6, 5mJ/cm2 UV",3.1968 and 2.1952
same,WST-1 raw signal (Figure 5c),"HCT116 cells [1]; conc 6.25e-6, 125 mJ/cm2 UV",2.1994 and 1.9427
same,WST-1 raw signal (Figure 5c),"HCT116 cells [1]; conc 6.25e-6, no UV",2.8791 and 2.2497
same,WST-1 raw signal (Figure 5c),"HCT116 cells [1]; conc 1.25e-5, 5mJ/cm2 UV",0.8793 and 1.0754
same,WST-1 raw signal (Figure 5c),"HCT116 cells [1]; conc 1.25e-5, 125 mJ/cm2 UV",1.8196 and 1.0192
same,WST-1 raw signal (Figure 5c),"HCT116 cells [1]; conc 1.25e-5, no UV",1.2465 and 0.8301
same,WST-1 raw signal (Figure 5c),"HCT116 cells [1]; conc 2.5e-5, 5mJ/cm2 UV",0.2188 and 0.2466
same,WST-1 raw signal (Figure 5c),"HCT116 cells [1]; conc 2.5e-5, 125 mJ/cm2 UV",0.4428 and 0.3571
same,WST-1 raw signal (Figure 5c),"HCT116 cells [1]; conc 2.5e-5, no UV",0.23 and 0.2464
same,WST-1 raw signal (Figure 5c),"HCT116 cells [1]; conc 5e-5, 5mJ/cm2 UV",0.1582 and 0.148
same,WST-1 raw signal (Figure 5c),"HCT116 cells [1]; conc 5e-5, 125 mJ/cm2 UV",0.1729 and 0.1634
same,WST-1 raw signal (Figure 5c),"HCT116 cells [1]; conc 5e-5, no UV",0.1562 and 0.1551
same,WST-1 raw signal (Figure 5c),"HCT116 cells [1]; conc 1.95E-07, 5mJ/cm2 UV",3.319 and 3.3471
same,WST-1 raw signal (Figure 5c),"HCT116 cells [1]; conc 1.95E-07, 125 mJ/cm2 UV",2.9662 and 3.2767
same,WST-1 raw signal (Figure 5c),"HCT116 cells [1]; conc 1.95E-07, no UV",3.3384 and 3.3351
same,WST-1 raw signal (Figure 5c),"HCT116 cells [1]; conc 3.91E-07, 5mJ/cm2 UV",3.2173 and 2.6279
same,WST-1 raw signal (Figure 5c),"HCT116 cells [1]; conc 3.91E-07, 125 mJ/cm2 UV",3.2982
same,WST-1 raw signal (Figure 5c),"HCT116 cells [1]; conc 3.91E-07, no UV",3.3319 and 2.4545
same,WST-1 raw signal (Figure 5c),"HCT116 cells [1]; conc 7.81E-07, 5mJ/cm2 UV",3.0666 and 2.7778
same,WST-1 raw signal (Figure 5c),"HCT116 cells [1]; conc 7.81E-07, 125 mJ/cm2 UV",3.2287 and 3.2519
same,WST-1 raw signal (Figure 5c),"HCT116 cells [1]; conc 7.81E-07, no UV",3.286 and 3.3592
same,WST-1 raw signal (Figure 5c),"HCT116 cells [1]; conc 9.77E-08, 5mJ/cm2 UV",3.3085 and 3.2577
same,WST-1 raw signal (Figure 5c),"HCT116 cells [1]; conc 9.77E-08, 125 mJ/cm2 UV",3.2825 and 3.2983
same,WST-1 raw signal (Figure 5c),"HCT116 cells [1]; conc 9.77E-08, no UV",3.2977 and 3.3288
same,potentiation of CPD formation by UVA,U2OS cells,not
same,DNA damage (γ-H2AX) in the presence of UVA,[2],not
same,ROS in the presence of UVA (ratio after/before UVA),HCT116 cells [3],not
same,synthetic lethality with loss of HR repair,[4],synthetic lethal
